Experiments:
Type in all cases: in vivo
Avena fatua [1] = assay: Greenhouse preemergence herbicidal activity; conditions: AVEFA
Protocol: (§1) The test plants have been seeded, separately for each species, in plastic containers in sandy loamy soil containing 5% of organic matter.
(§2) The containers were irrigated gently to promote germination and growth and subsequently covered with transparent plastic hoods until the plants had rooted.
(§3) The plants have been cultivated due to their individual requirements at 10-25° C. and 20-35° C. The plants were irrigated due to their necessity.
(§4) The racemic mixture (±)-2-exo-(2-M ethylbenzyloxy)-1-methyl-4-isopropyl-7-oxabicyclo[2.2.1]heptane was used as herbicide A and formulated as emulsifiable concentrates with an active ingredient concentration of 50 g/l, 100 g/I or 750 g/I respectively.
(§5) Imazamox (herbicide B.1) was used as a water dispersible granule (70% WG).
(§6) In the following experiments, the herbicidal activity for the individual herbicidal compositions (solo and mixture applications) was assessed 20 days after treatment (DAT).
(§7) The evaluation for the damage on undesired weeds caused by the chemical compositions was carried out using a scale from 0 to 100%, compared to the untreated control plants. Here, 0 means no damage and 100 means complete destruction of the plants.
(§8) E=X+Y−(X·Y/100) where X=effect in percent using herbicide A at an application rate a; • Y=effect in percent using herbicide B at application rate b; • E=expected effect (in %) of herbicide A+herbicide B at application rates a+b.

Galium aparine = assay: Greenhouse preemergence herbicidal activity; conditions: GALAP, 20 DAT
Protocol: as §1, §2, §3, §4, §5, §6, §7, §8

Abutilon theophrasti = assay: Greenhouse preemergence herbicidal activity; conditions: ABUTH, 20 DAT
Protocol: as §1, §2, §3, §4, §5, §6, §7, §8

Stellaria media = assay: Greenhouse preemergence herbicidal activity; conditions: STEME
Protocol: as §1, §2, §3, §4, §5, §6, §7, §8

Amaranthus retroflexus = assay: Greenhouse preemergence herbicidal activity; conditions: AMARE
Protocol: as §1, §2, §3, §4, §5, §6, §7, §8

Geranium dissectum = assay: Greenhouse preemergence herbicidal activity; conditions: GERDI, 20 DAT
Protocol: as §1, §2, §3, §4, §5, §6, §7, §8

Setaria viridis [2] = assay: Greenhouse preemergence herbicidal activity; conditions: SETVI
Protocol: as §1, §2, §3, §4, §5, §6, §7, §8

Anthemis arvensis [3] = assay: Greenhouse preemergence herbicidal activity; conditions: ANTAR
Protocol: as §1, §2, §3, §4, §5, §6, §7, §8

Sorghum halepense [4] = assay: Greenhouse preemergence herbicidal activity; conditions: SORHA, 20 DAT
Protocol: as §1, §2, §3, §4, §5, §6, §7, §8

Echinochloa crus-galli = assay: Greenhouse preemergence herbicidal activity; conditions: ECHCG, 20 DAT
Protocol: as §1, §2, §3, §4, §5, §6, §7, §8

Polygonum convolvulus [5] = assay: Greenhouse preemergence herbicidal activity; conditions: POLCO, 20 DAT
Protocol: as §1, §2, §3, §4, §5, §6, §7, §8

Chenopodium album [6] = assay: Greenhouse preemergence herbicidal activity; conditions: CHEAL, 20 DAT
Protocol: as §1, §2, §3, §4, §5, §6, §7, §8

Lolium multiflorum = assay: Greenhouse preemergence herbicidal activity; conditions: LOLMU
Protocol: as §1, §2, §3, §4, §5, §6, §7, §8

Avena fatua [7] = assay: Greenhouse postemergence herbicidal activity; conditions: AVEFA, 20 DAT
Protocol: as §1
(§9) For the post emergence treatment, the plants were first grown to the 2 leaf station (GS 12). Here, the herbicidal compositions were suspended or emulsified in water as distribution medium and sprayed using finely distributing nozzles.
as §3, §4, §5, §6, §7, §8

Setaria viridis [8] = assay: Greenhouse postemergence herbicidal activity; conditions: SETVI
Protocol: as §1, §9, §3, §4, §5, §6, §7, §8

Anthemis arvensis [9] = assay: Greenhouse postemergence herbicidal activity; conditions: ANTAR, 20 DAT
Protocol: as §1, §9, §3, §4, §5, §6, §7, §8

Sorghum halepense [10] = assay: Greenhouse postemergence herbicidal activity; conditions: SORHA, 20 DAT
Protocol: as §1, §9, §3, §4, §5, §6, §7, §8

Polygonum convolvulus [11] = assay: Greenhouse postemergence herbicidal activity; conditions: POLCO
Protocol: as §1, §9, §3, §4, §5, §6, §7, §8

Chenopodium album [12] = assay: Greenhouse postemergence herbicidal activity; conditions: CHEAL
Protocol: as §1, §9, §3, §4, §5, §6, §7, §8

[13] = imazamox solo 8.8 g ai/ha, 20 DAT
[14] = imazamox solo 8.8 g ai/ha, 20 DAT (line of 50 + 8.8)
[15] = imazamox solo 17.5 g ai/ha, 20 DAT
[16] = imazamox solo 17.5 g ai/ha, 20 DAT (line of 100 + 17.5)
[17] = imazamox solo 4.4 g ai/ha, 20 DAT
[18] = imazamox solo 4.4 g ai/ha, 20 DAT (line of 25 + 4.4)
[19] = imazamox solo 35 g ai/ha, 20 DAT
[20] = imazamox solo 35 g ai/ha, 20 DAT (line of 200 + 35)
[21] = imazamox solo 4.4 g ai/ha, 20 DAT (line of 43.8 + 4.4)
[22] = herbicide A solo 50 g ai/ha, 20 DAT
[23] = herbicide A solo 75 g ai/ha, 20 DAT
[24] = herbicide A solo 100 g ai/ha, 20 DAT
[25] = herbicide A solo 250 g ai/ha, 20 DAT
[26] = herbicide A solo 150 g ai/ha, 20 DAT
[27] = herbicide A solo 25 g ai/ha, 20 DAT
[28] = herbicide A solo 37.5 g ai/ha, 20 DAT
[29] = herbicide A solo 200 g ai/ha, 20 DAT
[30] = herbicide A solo 300 g ai/ha, 20 DAT
[31] = herbicide A solo 62.5 g ai/ha, 20 DAT
[32] = herbicide A solo 125 g ai/ha, 20 DAT
[33] = herbicide A solo 43.8 g ai/ha, 20 DAT

## COCc1cnc(C2=NC(C)(C(C)C)C(=O)N2)c(C(=O)O)c1 (racemic) [imazamox, 2-[(RS)-4-isopropyl-4-methyl-5-oxo-2-imidazolin-2-yl]-5-methoxymethylnicotinic acid]
Avena fatua [1]; [13]
  herbicidal activity: 20%
Avena fatua [1]; [14]
  herbicidal activity: 20%
Avena fatua [1]; [15]
  herbicidal activity: 65%
Avena fatua [1]; [16]
  herbicidal activity: 65%
Galium aparine; imazamox solo 4.4 g ai/ha
  herbicidal activity: 0%
Galium aparine; imazamox solo 35 g ai/ha
  herbicidal activity: 75%
Abutilon theophrasti; imazamox solo 17.5 g ai/ha
  herbicidal activity: 70%
Abutilon theophrasti; imazamox solo 35 g ai/ha
  herbicidal activity: 75%
Stellaria media; [13]
  herbicidal activity: 80%
Stellaria media; [14]
  herbicidal activity: 80%
Stellaria media; [15]
  herbicidal activity: 95%
Amaranthus retroflexus; [17]
  herbicidal activity: 75%
Amaranthus retroflexus; [18]
  herbicidal activity: 75%
Amaranthus retroflexus; [13]
  herbicidal activity: 90%
Amaranthus retroflexus; [15]
  herbicidal activity: 95%
Amaranthus retroflexus; [16]
  herbicidal activity: 95%
Amaranthus retroflexus; [19]
  herbicidal activity: 95%
Amaranthus retroflexus; [20]
  herbicidal activity: 95%
Geranium dissectum; imazamox solo 8.8 g ai/ha
  herbicidal activity: 0%
Setaria viridis [2]; [18]
  herbicidal activity: 20%
Setaria viridis [2]; imazamox solo 4.4 g ai/ha, 20 DAT (line of 62.5 + 4.4)
  herbicidal activity: 60%
Setaria viridis [2]; [13]
  herbicidal activity: 65%
Anthemis arvensis [3]; [17]
  herbicidal activity: 0%
Anthemis arvensis [3]; [13]
  herbicidal activity: 0%
Anthemis arvensis [3]; [15]
  herbicidal activity: 20%
Anthemis arvensis [3]; [19]
  herbicidal activity: 65%
Anthemis arvensis [3]; [20]
  herbicidal activity: 65%
Sorghum halepense [4]; imazamox solo 4.4 g ai/ha
  herbicidal activity: 10%
Echinochloa crus-galli; imazamox solo 4.4 g ai/ha
  herbicidal activity: 30%
Echinochloa crus-galli; imazamox solo 8.8 g ai/ha
  herbicidal activity: 40%
Polygonum convolvulus [5]; imazamox solo 8.8 g ai/ha
  herbicidal activity: 25%
Chenopodium album [6]; imazamox solo 4.4 g ai/ha
  herbicidal activity: 0%
Lolium multiflorum; [17]
  herbicidal activity: 0%
Lolium multiflorum; [18]
  herbicidal activity: 0%
Lolium multiflorum; [13]
  herbicidal activity: 70%
Avena fatua [7]; imazamox solo 4.4 g ai/ha
  herbicidal activity: 70%
Setaria viridis [8]; [17]
  herbicidal activity: 95%
Setaria viridis [8]; [21]
  herbicidal activity: 95%
Anthemis arvensis [9]; imazamox solo 35 g ai/ha
  herbicidal activity: 98%
Sorghum halepense [10]; imazamox solo 4.4 g ai/ha
  herbicidal activity: 90%
Sorghum halepense [10]; imazamox solo 17.5 g ai/ha
  herbicidal activity: 95%
Sorghum halepense [10]; imazamox solo 35 g ai/ha
  herbicidal activity: 98%
Polygonum convolvulus [11]; [17]
  herbicidal activity: 90%
Polygonum convolvulus [11]; [15]
  herbicidal activity: 95%
Polygonum convolvulus [11]; imazamox solo 17.5 g ai/ha, 20 DAT (line of 175 + 17.5)
  herbicidal activity: 95%
Polygonum convolvulus [11]; [19]
  herbicidal activity: 95%
Chenopodium album [12]; [17]
  herbicidal activity: 90%
Chenopodium album [12]; [21]
  herbicidal activity: 90%
Chenopodium album [12]; [13]
  herbicidal activity: 95%

## (±)-2-exo-(2-Methylbenzyloxy)-1-methyl-4-isopropyl-7-oxabicyclo[2.2.1]heptane [herbicide A]
Avena fatua [1]; [22]
  herbicidal activity: 0%
Avena fatua [1]; [23]
  herbicidal activity: 20%
Avena fatua [1]; [24]
  herbicidal activity: 20%
Avena fatua [1]; [25]
  herbicidal activity: 65%
Galium aparine; herbicide A solo 25 g ai/ha
  herbicidal activity: 0%
Galium aparine; herbicide A solo 200 g ai/ha
  herbicidal activity: 30%
Abutilon theophrasti; herbicide A solo 100 g ai/ha
  herbicidal activity: 0%
Abutilon theophrasti; herbicide A solo 200 g ai/ha
  herbicidal activity: 0%
Stellaria media; [22]
  herbicidal activity: 20%
Stellaria media; [23]
  herbicidal activity: 20%
Stellaria media; [26]
  herbicidal activity: 30%
Amaranthus retroflexus; [27]
  herbicidal activity: 0%
Amaranthus retroflexus; [28]
  herbicidal activity: 0%
Amaranthus retroflexus; [23]
  herbicidal activity: 0%
Amaranthus retroflexus; [24]
  herbicidal activity: 0%
Amaranthus retroflexus; [26]
  herbicidal activity: 0%
Amaranthus retroflexus; [29]
  herbicidal activity: 0%
Amaranthus retroflexus; [30]
  herbicidal activity: 0%
Geranium dissectum; herbicide A solo 125 g ai/ha
  herbicidal activity: 70%
Setaria viridis [2]; [27]
  herbicidal activity: 75%
Setaria viridis [2]; [31]
  herbicidal activity: 98%
Setaria viridis [2]; [23]
  herbicidal activity: 98%
Anthemis arvensis [3]; [22]
  herbicidal activity: 0%
Anthemis arvensis [3]; [31]
  herbicidal activity: 0%
Anthemis arvensis [3]; [26]
  herbicidal activity: 0%
Anthemis arvensis [3]; [29]
  herbicidal activity: 0%
Anthemis arvensis [3]; [30]
  herbicidal activity: 0%
Sorghum halepense [4]; herbicide A solo 62.5 g ai/ha
  herbicidal activity: 80%
Echinochloa crus-galli; herbicide A solo 62.5 g ai/ha
  herbicidal activity: 98%
Echinochloa crus-galli; herbicide A solo 125 g ai/ha
  herbicidal activity: 98%
Polygonum convolvulus [5]; herbicide A solo 125 g ai/ha
  herbicidal activity: 0%
Chenopodium album [6]; herbicide A solo 37.5 g ai/ha
  herbicidal activity: 20%
Lolium multiflorum; [27]
  herbicidal activity: 50%
Lolium multiflorum; [28]
  herbicidal activity: 60%
Lolium multiflorum; [32]
  herbicidal activity: 90%
Avena fatua [7]; herbicide A solo 43.8 g ai/ha
  herbicidal activity: 25%
Setaria viridis [8]; [33]
  herbicidal activity: 75%
Setaria viridis [8]; [31]
  herbicidal activity: 85%
Anthemis arvensis [9]; herbicide A solo 500 g ai/ha
  herbicidal activity: 65%
Sorghum halepense [10]; herbicide A solo 62.5 g ai/ha
  herbicidal activity: 40%
Sorghum halepense [10]; herbicide A solo 175 g ai/ha
  herbicidal activity: 50%
Sorghum halepense [10]; herbicide A solo 350 g ai/ha
  herbicidal activity: 70%
Polygonum convolvulus [11]; [31]
  herbicidal activity: 25%
Polygonum convolvulus [11]; herbicide A solo 175 g ai/ha, 20 DAT
  herbicidal activity: 50%
Polygonum convolvulus [11]; [25]
  herbicidal activity: 40%
Polygonum convolvulus [11]; herbicide A solo 350 g ai/ha, 20 DAT
  herbicidal activity: 50%
Chenopodium album [12]; [33]
  herbicidal activity: 60%
Chenopodium album [12]; [31]
  herbicidal activity: 30%
Chenopodium album [12]; [32]
  herbicidal activity: 50%

— patent US11219212B2, “Herbicidal composition comprising cinmethylin and imazamox” (BASF Agro B.V., priority 2015, dated 2022)
